# Patent publication US7670613B2, “Androgen modulators” (Pfizer Inc., priority 2004, dated 2010)
# pIC50: −log10 of the molar value.
# Molecular target: T1, hAR (Homo sapiens, UniProt P10275)
# T1 construct: made in house; host or cells: baculovirus/Sf9 insect cells
# T1 sequence (P10275 1-920): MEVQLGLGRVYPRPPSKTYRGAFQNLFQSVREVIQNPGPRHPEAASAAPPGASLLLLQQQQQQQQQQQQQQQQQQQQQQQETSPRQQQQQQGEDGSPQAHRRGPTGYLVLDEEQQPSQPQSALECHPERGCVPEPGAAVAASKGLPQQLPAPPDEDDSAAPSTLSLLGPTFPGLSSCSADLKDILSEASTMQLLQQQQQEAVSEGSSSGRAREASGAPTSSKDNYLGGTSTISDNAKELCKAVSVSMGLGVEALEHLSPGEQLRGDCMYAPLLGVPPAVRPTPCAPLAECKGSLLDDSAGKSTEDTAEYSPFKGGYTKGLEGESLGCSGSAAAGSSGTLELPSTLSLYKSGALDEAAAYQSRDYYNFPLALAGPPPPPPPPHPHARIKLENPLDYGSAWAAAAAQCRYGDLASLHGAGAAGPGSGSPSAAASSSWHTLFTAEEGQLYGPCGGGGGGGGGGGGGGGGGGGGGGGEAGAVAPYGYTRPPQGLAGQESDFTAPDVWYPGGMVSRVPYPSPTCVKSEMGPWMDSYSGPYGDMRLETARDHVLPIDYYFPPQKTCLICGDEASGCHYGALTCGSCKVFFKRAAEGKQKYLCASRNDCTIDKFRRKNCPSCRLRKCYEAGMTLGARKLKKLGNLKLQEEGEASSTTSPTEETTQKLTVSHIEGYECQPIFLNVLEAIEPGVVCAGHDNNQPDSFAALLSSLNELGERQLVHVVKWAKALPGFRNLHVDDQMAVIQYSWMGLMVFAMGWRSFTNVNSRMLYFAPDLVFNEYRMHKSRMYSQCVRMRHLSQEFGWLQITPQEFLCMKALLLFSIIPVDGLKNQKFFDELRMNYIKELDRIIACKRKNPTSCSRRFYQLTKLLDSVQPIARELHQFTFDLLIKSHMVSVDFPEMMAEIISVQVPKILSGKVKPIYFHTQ
# Experiment: Competitive binding analysis on baculovirus/Sf9 generated hAR extracts with 3H-DHT tracer
# Settings: AR Binding IC50, hAR extract, 1 nM 3H-DHT, one hour at 4° C.; mean of multiple tests
row,Structure (SMILES),pIC50
1,"N#Cc1ccc(O[C@@H]2CCCC[C@H]2C#N)cc1C(F)(F)F (single isomer, unassigned) [Example 72, (trans)-(−)-4-(2-Cyano-cyclohexyloxy)-2-trifluoromethyl-benzonitrile]",7.37
2,"N#Cc1ccc(O[C@@H]2CCCCC2C#N)cc1C(F)(F)F (stereo in doubt) [Example 14, -4-(2-Cyano-cyclohexyloxy)-2-trifluoromethyl-benzonitrile]",7.24
3,"CC1CCCCC1Oc1ccc(C#N)c(C(F)(F)F)c1 (stereo not drawn) [Example 8, 4-(2-Methyl-cyclohexyloxy)-2-trifluoromethyl-benzonitrile]",6.97
